Results published in patent US11331368B2, “Angiotensin receptor agonists and uses thereof” (Monash University, priority 2017, dated 2022).

Key:
human AT1R = biological target: T1, human AT1R (Homo sapiens, UniProt P30556); test: Competition radioligand binding (125I-Sar1-Ile8-AngII) in AT1R-transfected HEK-293 cells
T1 construct: expressed in transfected cells
T1 sequence (P30556 1-359): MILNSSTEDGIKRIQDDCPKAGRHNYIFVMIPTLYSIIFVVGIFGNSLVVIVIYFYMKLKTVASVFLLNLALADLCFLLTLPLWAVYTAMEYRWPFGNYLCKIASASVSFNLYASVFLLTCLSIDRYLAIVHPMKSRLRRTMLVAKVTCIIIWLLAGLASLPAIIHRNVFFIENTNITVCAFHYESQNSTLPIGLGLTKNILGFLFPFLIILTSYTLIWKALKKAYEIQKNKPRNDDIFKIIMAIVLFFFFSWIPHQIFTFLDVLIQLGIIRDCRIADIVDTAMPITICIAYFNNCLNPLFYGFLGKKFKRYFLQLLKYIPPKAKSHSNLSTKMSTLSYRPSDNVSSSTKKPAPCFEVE

[1] = tested on: human cardiac fibroblasts; test: TGF-β1-induced collagen production in human cardiac fibroblasts (Western blot); assay type: cell-based; settings: co-treated with TGF-β1 for 3 days, increasing concentrations up to 1 μM
Description: D) Human cardiac fibroblasts (HCFs) were treated with TGFβ1 to induce a pro-fibrotic phenotype state in cell culture, exemplified by increased collagen-1 production, measured by Western blot. HCFs were treated with TGFβ1 alone, or in the presence of an AT2R agonist for 3 days, and the ability of AT2R agonists to inhibit TGFβ1-induced collagen-1 production was measured.
Commercially available human cardiac fibroblasts (HCF, Catalog #6300, Sciencell, Calif., USA) were grown in T75 flask maintained in an incubator at 37° C., 5% CO2. Complete media composition: M199 media (#11150-059, life technologies)+10% FBS (#10437-028, life technologies)+1% Fibroblast Growth Supplement-2 (#2382, ScienCell)+1% penicillin/streptomycin 10,000 U/ml antibiotics (#15140-122, Life Technologies). Fresh complete media was replenished every alternate day until culture reached 70% confluence in which media is replenished daily until it reached approximately 90% confluence in order to passage/subculture. To subculture, media was discarded and culture was rinsed with warm PBS. After which, culture was detached using warm 0.05% Trypsin+EDTA with gentle swirling of flask to make sure cells were not adherent to surface of flask. Trypsin was then neutralized with complete media and suspension was then transferred into a new falcon tube and centrifuged at 1000 rpm for 5 minutes. Supernatant was discarded and pellet of cells were resuspended with 5 ml of complete media, followed by cell counting. For subculturing/passaging, 1 million HCFs are placed into a T75 flask. For Picrosirius Red (PSR) staining or immunofluorescence experiments, 100 k cells were loaded per well in a 24 well plate lined with round coverslips. […]
Once treatment is complete, cells were washed with warm PBS and detached using Accutase (A6964, Sigma), with 5 minutes incubation at 37° C. […] The supernatant (˜20 ul) was transferred to a new tube and protein concentrations were measured using Biorad Lowry protein assay. Protein quantification of respective markers were performed via standard western blot analysis. […]

mouse aortae = test: Vasorelaxation of pre-contracted mouse aortae; settings: 0.1-1000 nM, pre-contracted with U46619
Text: FIG. 17: The selective AT2R ligands, β-Pro^7-Ang III and D-Arg^2-β-Pro^7-Ang III, are functional agonists in vasculature.

Q: Which results are given for “Arg-Val-Tyr-Ile-His-β-Pro-Phe [βPro-Ang III]”?
A: binding at AT1R (displacement of 125I-Sar1-Ile8-AngII), in words (human AT1R): bind poorly; TGF-β1-induced collagen production [1]: dose-dependent decreases; vasorelaxation of pre-contracted aortae (mouse aortae): concentration-dependent vasorelaxation
